# Experiments:
# [1] = tested on: hESCs/hiPSCs; experiment: Induction of NMPs from hPSCs in 2D culture (FGF2, CHIR99021); assay type: cell-based, human; settings: N2/B27 with FGF2 and CHIR99021, up to day 6
# Protocol: Add 2 mL N2/B27 media containing 10ng of FGF2 and SuM of CHIR99021 (Wnt signaling agonist) to each well of the 6-well plate and return the plate to the incubator. Feed cells every other day with N2/B27 media for up to 6 days. Cells should appear as a monolayer with cells packed together tightly at the end of day 6 (FIG. 16A). This confluency is optimal for embryoid body (EB) formation in the next step.
# [2] = tested on: CHIR-expanded EBs; experiment: Differentiation of CHIR-expanded EBs on Matrigel (IHC, RT-qPCR at day 10); assay type: cell-based, mouse
# Protocol: Embryoid body (EB) differentiation: To induce differentiation, EBs were dissociated into smaller clumps by a 5-7-minute treatment with cold 0.25% Trypsin (Gibco), followed by trituration. Trypsin was neutralized with 1:1 addition of Trypsin inhibitor (Sigma-Aldrich) and cells were pelleted by centrifugation at 1000RPM. Cell pellets were resuspended in N2/B27 medium (without growth factors) and plated onto a Matrigel precoated plate. In our experience, the single cell suspension of 100-150 EBs provided enough cells to seed one 24-well plate. […] At the end of 10 days, multiple neural processes can be visualized by phase contrast microscopy and cultures were either fixed with 4% PFA for immunohistochemistry or lysed to extract RNA in RLT buffer (Qiagen). […] CHIR withdrawal), or DAPT, a pro-differentiation agent (Crawford and Roelink, 2007) (FIG. 7J). […] This strategy was successful at restoring almost all dI identities in cultures taken from EBs both at the earliest passage and at the latest passage assessed (passage 7;
# [3] = tested on: mESCs-derived NMPs; experiment: 2D directed differentiation of NMPs with RA/BMP4, immunohistochemistry (pSmad1/5/8, Pax3, Pax6, Sox2, Tuj1, Pax2); assay type: cell-based, mouse; settings: 24 hr pulse of RA at day 3
# Protocol: The mouse ESC line, MM13, was routinely maintained in ES cell media (DMEM+20% FBS) with 100u/ml of mouse leukocyte inducing factor (LIF). […] To prepare cells for the differentiation, ESC colonies were dissociated with 0.25% trypsin and plated on gelatin coated plates at 1:10 dilution to reduce MEF transfer. Cells cultured on gelatin coated plates and allowed to proliferate for 1-2 days. To initiate differentiation, cells were plated on 0.1% gelatin coated 24-well CellBIND dishes (Corning) at 20,000 cells/ml density in 0.5 ml/well N2/B27 medium that contains 10 ng/ml basic fibroblast growth factor (bFGF). The N2/B27 medium contains 1:1 portions of Advanced Dulbecco's modified Eagle Media (DMEM) F12 (Hyclone) and Neurobasal media (Thermo Fisher Scientific) supplemented with 0.5×N2, 1×B27 supplement (with Vitamin A), 2 mM L-glutamine, 0.1 mM 2-mercaptoethanol (ME), and 1% BSA. On day 1, small colonies of cells can be observed attached to the bottom of the wells. On day 2, cells were supplemented with 10 ng/ml bFGF and 5 μM CHIR99021 for 24 hours to induce a neuromesodermal identity (Gouti et al., 2014). On day 3, media was changed as follows: for protocol 1, cells were exposed to 100 nM RA for 48 hrs. […] At the end of the differentiation, the cultures were fixed for immunohistochemical analysis or lysed to obtain RNA for RNA-Seq or quantitative reverse transcriptase PCR analysis. […]
Structure (SMILES),growth rate of the hPSC/NMP monolayer [1],identity of cultures kept in CHIR by day 10 ([2]; passage 6 or 7 EBs dissociated onto Matrigel),"effect of CHIR removal on differentiation ([2]; passage 6 or 7 EBs, day 10)",Pax3+ cells by day 4 [3],increase in the number of dI4/dI6s (Pax2+) compared to control ([2]; pulse between day 3 and 5 during differentiation of expanded EBs)
"Cc1c[nH]c(-c2cnc(NCCNc3ccc(C#N)cn3)nc2-c2ccc(Cl)cc2Cl)n1 [CHIR, CHIR99021]",induces a higher growth rate in the monolayer,continued to be solely Sox2^+,removal of CHIR triggers spontaneous neural differentiation,,
"CC1=C(/C=C/C(C)=C/C=C/C(C)=C/C(=O)O)C(C)(C)CCC1 [RA, retinoic acid]",,,,90-95%,~ 6 fold

# — patent publication US20260275280A1, “DIRECTED DIFFERENTIATION PROTOCOLS TO DERIVE BONE FIDE SPINAL SENSORY INTERNEURONS” (THE REGENTS OF THE UNIVERSITY OF CALIFORNIA, priority 2022, published 2026)
